What was measured:
[1] = tested on: PBL; experiment: Cell viability by DiOC6 staining, flow cytometry: PBL of healthy individuals; format: cell-based, human
Method: (§1) After addition of 5 μl PI-solution (100 μg/ml) the cells were analyzed by FACS.
(§2) Experiments were performed as reported recently.

[2] = tested on: myeloma cells (OPM-2, U266 and RPMI 8226); experiment: Viability of myeloma cell lines, mean IC50 over OPM-2, U266 and RPMI 8226; format: cell-based, human
Method: A mean IC50 value in myeloma cells was determined using the mean of the IC50 results determined in OPM-2, U266 and RPMI 8226 cells.

[3] = tested on: OPM-2 myeloma cells; experiment: Cell viability by DiOC6 staining, flow cytometry: OPM-2; format: cell-based, human; settings: for viability of OPM-2 cells, single drug or combination: three days, EA or CIC 30 μM, thalidomide 40 μM, lenalidomide 12 μM
Method: (§3) The lymphoma cell lines LAM-53, SU-DHL-4, Daudi and Raji, as well as the myeloma cell lines OPM-2, RPMI-8226 and U-266 (all obtained from DSMZ, Collection of Microorganisms and Cell Culture, Braunschweig, Germany) were cultured in RPMI-1640 Medium consisting of 10% heat-inactivated fetal calf serum (FCS, Invitrogen, Karlsruhe, Germany), 2.5% 1 M HEPES, and 1× penicillin/streptomycin (all from PAA Laboratories GmbH, Cölbe, Germany). Cells were cultured at a density of 3.3×10^5 cells ml^−1 andincubated at 37° C. with 5% CO2 and 95% humidity.
as §1, §2

[4] = tested on: lymphoma cell lines (OCI-Ly8 LAM53, SU-DHL-4 and Raji); experiment: Viability of lymphoma cell lines in vitro; format: cell-based, human
Method: as §1, §2

[5] = tested on: MPC11 myeloma cells; format: in vivo; settings: for animals in which solid tumor nodules formed: gavage 450 μg per animal daily; for overall survival compared to control group: oral 450 μg/day, 750 μg lenalidomide/day in combination
Method: Mice were treated orally with 450 μg/day EA and 750 μg lenalidomide/day, respectively. Overall survival and tumor growth were measured. Tumor volume was calculated as follows: volume=length×width^2×0.52.
Mice were treated orally with 450 μg/day CIC and 750 μg lenalidomide/day, respectively. Overall survival and tumor growth were measured. Tumor volume was calculated as follows: volume=length×width^2×0.52.
Mice were treated orally with 450 μg/day PO. Overall survival and tumor growth were measured. Tumor volume was calculated as follows: volume=length×width^2×0.52.

[6] = tested on: primary myeloma cells; experiment: Viability of primary myeloma cells from bone marrow of patients; format: cell-based, human; settings: three days; preliminary data
Method: Bone marrow samples from patients with myeloma were taken after informed consent, single cell suspensions generated and cells ficolled. Cells were incubated with or without EA for three days and measured for viability.
Results represent data from two separate experiments. Data are shown as mean.
Bone marrow samples from patients with myeloma were taken after informed consent, single cell suspensions generated and cells ficolled. Cells were incubated with or without CIC for three days and measured for viability.
Bone marrow samples from patients with myeloma were taken after informed consent, single cell suspensions generated and cells ficolled. Cells were incubated with or without GF for three days and measured for viability.

[7] = cited from earlier work
[8] = tested on: Daudi lymphoma cells; experiment: Cell viability by DiOC6 staining, flow cytometry: Daudi; format: cell-based, human; settings: EA or CIC 30 μM; data not shown
Method: as §3, §1
as §3, with “and incubated” for “andincubated”
as §2

[9] = tested on: Raji lymphoma cells; experiment: Cell viability by DiOC6 staining, flow cytometry: Raji; format: cell-based, human; settings: for viability of Raji cells, single drug or combination: EA or CIC 30 μM, data not shown
Method: as §3, §1, §2

[10] = tested on: PBMC; experiment: Cell viability by DiOC6 staining, flow cytometry: PBMC of healthy individuals; format: cell-based, human
Method: as §1
PBMCs were isolated from blood of healthy donors by Ficoll-Hypaque density gradient centrifugation. Blood from buffy coats was mixed 1:2 with PBS/1% BSA (both PAA, Cölbe, Germany) and used for a ficoll gradient (LymphoPrep, PAA, Cölbe, Germany). After the centrifugation at 800 g for 30 minutes, the leukocyte layer was removed and transferred to new tubes.
as §2

[11] = tested on: U266 myeloma cells; experiment: Cell viability by DiOC6 staining, flow cytometry: U266; format: cell-based, human; settings: three days; EA or CIC 30 μM; thalidomide 160 μM
Method: as §3, §1, §2

[12] = tested on: RPMI 8226 myeloma cells; experiment: Cell viability by DiOC6 staining, flow cytometry: RPMI 8226; format: cell-based, human; settings: three days; EA or CIC 30 μM; thalidomide 20 μM; lenalidomide 80 μM
Method: as §3, §1, §2

[13] = tested on: Wnt/beta catenin signaling; settings: 960 compounds screened; cited from earlier work
[14] = tested on: SU-DHL-4 lymphoma cells; experiment: Cell viability by DiOC6 staining, flow cytometry: SU-DHL-4; format: cell-based; settings: Homo sapiens, EA 30 μM, after 72 h, read-out: relative viability, SU-DHL-4
Method: as §3, §1, §2

[15] = tested on: OCI-Ly8 LAM53 lymphoma cells; experiment: Cell viability by DiOC6 staining, flow cytometry: OCI-Ly8 LAM53; format: cell-based; settings: Homo sapiens, EA 30 μM, after 72 h, read-out: relative viability, LAM-53
Method: as §3, §1, §2

[16] = tested on: primary CLL cells; settings: cited from earlier work

With `Cc1cc(CC(C)CC(C)(C)C)n(O)c(=O)c1` (stereo not shown) [piroctone olamine] the “effect on normal PBL” value [1] was “marginal”, the “viability of myeloma cell lines in vitro” value [2] was “significantly decreased the viability” and the “mode of cytotoxic activity” value ([3]; 0.1 uM, three days (FIG. 12)) was “induction of apoptosis”. The “viability of lymphoma cell lines in vitro” value [4] was “significantly (p<0.05) decreased the viability”, the “animals in which solid tumor nodules formed” value [5] was 5 of 6 and the “overall survival compared to control group” value [5] was “significantly (p<0.05) longer”. The “growth of primary myeloma cells from bone marrow of patients” value (shortened to “growth of primary myeloma cells”) [6] was “inhibits the growth”.
In the case of `Cc1cc(C2CCCCC2)n(O)c(=O)c1` [Ciclopirox, 6-cyclohexyl-1-hydroxy-4-methyl-1,2-dihydropyridin-2-one], the solubility in methanol [7] is given as “soluble”.
For `COC1=CC(=O)C[C@@H](C)[C@]12Oc1c(Cl)c(OC)cc(OC)c1C2=O` [griseofulvin, (2S,6′R)-7-chloro-2′,4,6-trimethoxy-6′-methyl-3H,4′H-spiro[1-benzofuran-2,1′-cyclohex[2]ene]-3,4′-dione], the “viability of myeloma cell lines in vitro” value [2] was “significantly decreased the viability”, the “viability of lymphoma cell lines in vitro” value [4] was “significantly (p<0.05) decreased the viability” and the “animals in which solid tumor nodules formed” value [5] was 5 of 6. The “overall survival compared to control group” value [5] was “significantly (p<0.05) longer” and the “growth of primary myeloma cells” value [6] was “inhibits the growth”.
In the case of `COc1cccc2c1C(=O)c1c(O)c3c(c(O)c1C2=O)C[C@@](O)(C(=O)CO)C[C@@H]3O[C@H]1C[C@H](N)[C@H](O)[C@H](C)O1` [doxorubicin], the “viability of Daudi cells, single drug or combination” value [8] is reported as “significant decrease in viability” and the “viability of Raji cells, single drug or combination” value [9] is reported as “significant decrease in viability”.
For `O=C1CCC(N2C(=O)c3ccccc3C2=O)C(=O)N1` (racemic) [thalidomide, (RS)-2-(2,6-dioxopiperidin-3-yl)-1H-isoindole-1,3(2H)-dione], the “effect on normal PBL” value [1] was “no effect”, the “viability of OPM-2 cells, single drug or combination” value (“viability of OPM-2 cells” for short) [3] was “significant decrease in viability” and the “effect on normal PBMC” value [10] was “no effect”. For the same compound, the “viability of U-266 cells, single drug or combination” value [11] was “significant decrease in viability”, the “viability of lymphoma cell lines in vitro” value [4] was “no effect” and the “viability of RPMI-8226 cells, single drug or combination” value [12] was “significant decrease in viability”.
For `CC(C)C[C@H](NC(=O)[C@H](Cc1ccccc1)NC(=O)c1cnccn1)B(O)O` [bortezomib], the “viability of OPM-2 cells” value [3] was “significant decrease in viability”.
For `C=C(CC)C(=O)c1ccc(OCC(=O)O)c(Cl)c1Cl` [EA, 2-[2,3-dichloro-4-(2-methylidenebutanoyl)phenoxy]acetic acid], the solubility in water [7] is given as “slightly solube”, the “solubility in most organic solvents” value ([7]; e.g. alcohols, chloroform, and benzene) is given as “soluble” and the “result of TOPflash reporter screen” value [13] is given as “Wnt/beta catenin inhibitors”. The viability at 30 µM [14] was 97.6%, the viability at 30 µM [15] was 91% and the “viability of lymphoma cell lines in vitro” value [4] was “significantly (p<0.05) decreased the viability”. For the same compound, the “cell death in primary CLL cells” value [16] was “selectively induced cell death”, the viability at 30 µM ([9]; Homo sapiens, Raji, EA 30 μM, after 72 h, read-out: relative viability, Raji) was 78.9% and the “tumor growth compared to mice treated with lenalidomide alone” value ([5]; oral 450 μg/day EA, 750 μg lenalidomide/day, p<0.001) was “significantly reduced”. For the same compound, the “growth of primary myeloma cells” value [6] was “inhibits the growth”.
For `Cc1cc(C2CCCCC2)n(O)c(=O)c1` [CIC, ciclopirox olamine], the “effect on normal PBL” value [1] is listed as “marginal”, the “result of TOPflash reporter screen” value [13] is listed as “Wnt/beta catenin inhibitors” and the “effect on normal PBMC” value [10] is listed as “marginal”. For the same compound, the “viability of lymphoma cell lines in vitro” value [4] was “significantly (p<0.05) decreased the viability”, the “cell death in primary CLL cells” value [16] was “selectively induced cell death” and the “tumor growth compared to control mice” value ([5]; oral 450 μg/day CIC, 750 μg lenalidomide/day) was “significantly reduced”. The “growth of primary myeloma cells” value [6] was “inhibits the growth”.
In the case of rituximab, the “viability of Daudi cells, single drug or combination” value [8] is reported as “significantly decreased” and the “viability of Raji cells, single drug or combination” value [9] is reported as “significantly decreased”.
With `Nc1cccc2c1CN(C1CCC(=O)NC1=O)C2=O` (racemic) [lenalidomide, (RS)-3-(4-amino-1-oxo-3H-isoindol-2-yl)piperidine-2,6-dione] the “effect on normal PBL” value [1] was “marginal”, the “viability of OPM-2 cells” value [3] was “significant decrease in viability” and the “effect on normal PBMC” value [10] was “marginal”. The “viability of lymphoma cell lines in vitro” value [4] was “no effect” and the “viability of RPMI-8226 cells, single drug or combination” value [12] was “significant decrease in viability”.
